Assay results as given in patent US12275729B2 (Merck Sharp & Dohme LLC, priority 2017, dated 2025).
Structures can show the parent of a compound that is named as a salt.

How the values were obtained:
IDO1 [1] = target: T1, IDO1 (Homo sapiens, UniProt P14902); assay: IDO1 Cellular Assay in HeLa Cells Stimulated with IFNγ; type: cell-based; conditions: read-out: Hela IC50
IDO1 [2] = target: T1, IDO1; assay: IDO1 Human Whole Blood Assay; type: cell-based; design: Human whole blood was drawn in sodium heparin coated tubes from healthy internal donors; from tissue; host or cells: human whole blood from healthy donors, stimulated with LPS and IFNγ; conditions: LPS and IFNγ stimulated

T1 sequence (P14902 whole entry): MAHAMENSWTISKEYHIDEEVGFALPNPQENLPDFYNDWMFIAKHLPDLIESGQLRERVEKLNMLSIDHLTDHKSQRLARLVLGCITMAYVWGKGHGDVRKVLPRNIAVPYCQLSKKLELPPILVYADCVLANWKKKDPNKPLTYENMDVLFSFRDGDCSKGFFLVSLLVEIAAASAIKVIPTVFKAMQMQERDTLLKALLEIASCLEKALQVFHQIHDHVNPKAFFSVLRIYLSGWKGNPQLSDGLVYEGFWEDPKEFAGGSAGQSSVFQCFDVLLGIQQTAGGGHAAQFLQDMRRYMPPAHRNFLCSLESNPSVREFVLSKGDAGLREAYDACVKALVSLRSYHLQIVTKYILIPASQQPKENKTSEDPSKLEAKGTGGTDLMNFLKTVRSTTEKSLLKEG

IC50 (IDO1 [1]; about 48 hours)	IC50 (IDO1 [2])	IC50 (IDO1 [1])	IC50 (IDO1 [1]; value in running text)	Structure (SMILES)
3.8 nM	33 nM			CC(C)CC(=O)N1CCCc2cc([C@@H](C)NC(=O)c3ccc(Cl)cc3)ccc21 (racemic) [Example 28, 4-chloro-N-{(1R)-1-[1-(3-methyl-butanoyl)-1,2,3,4-tetrahydroquinolin-6-yl]ethyl}benzamide]
2.7 nM	17 nM			CC(NC(=O)c1ccc(Cl)cc1)c1ccc2c(n1)CCCN2C(=O)c1cc(C(F)F)ccn1 (stereo not drawn) [Example 289, 4-chloro-N-(1-(5-(4-(difluoromethyl)picolinoyl)-5,6,7,8-tetrahydro-1,5-naphthyridin-2-yl)ethyl)benzamide]
7.9 nM	545 nM			CC(C(=O)Nc1ccc(F)cc1)c1ccc2c(c1)CCCN2Cc1cccc(Cl)c1 (racemic) [Example 224, 2-{1-[(3-chlorophenyl)methyl]-1,2,3,4-tetrahydroquinolin-6-yl}-N-(4-fluorophenyl)propanamide]
1.7 nM	11 nM			O=C(C1CC1)N1CCCc2cc(C3(C(=O)Nc4ccc(F)cc4)CCC3)ccc21 [Example 97, 1-[1-(cyclopropanecarbonyl)-1,2,3,4-tetrahydroquinolin-6-yl]-N-(4-fluorophenyl)cyclobutane-1-carboxamide]
1.72 nM	13 nM			Cc1ccnc(C(=O)N2CCCc3nc(C4(C(=O)Nc5ccc(Cl)cc5)COC4)ccc32)n1 [Example 399, N-(4-chlorophenyl)-3-(5-(4-methylpyrimidine-2-carbonyl)-5,6,7,8-tetrahydro-1,5-naphthyridin-2-yl)oxetane-3-carboxamide]
5.7 nM	36 nM			CC(C(=O)Nc1ccc(F)cc1)c1ccc2c(c1)CCCN2C(=O)c1cc(C(F)F)ccn1 (stereo not drawn) [Example 38, 2-{1-[4-(difluoromethyl)pyridine-2-carbonyl]-1,2,3,4-tetrahydroquinolin-6-yl}-N-(4-fluorophenyl)propanamide]
	70 nM	0.79 nM		O=C(OC1CC1)N1CCCc2nc(C3(C(=O)Nc4ccc(F)cc4)CCC3)ccc21 [Example 410, cyclopropyl 6-(1-((4-fluorophenyl)carbamoyl)cyclobutyl)-3,4-dihydro-1,5-naphthyridine-1(2H)-carboxylate]
	140 nM	3.82 nM		CC(C(=O)Nc1ccc(F)cc1)c1ccc2c(n1)CCCN2c1ccnc(C2CC2)n1 (stereo not drawn) [Example 366, 2-(5-(2-cyclopropylpyrimidin-4-yl)-5,6,7,8-tetrahydro-1,5-naphthyridin-2-yl)-N-(4-fluorophenyl)propanamide]
3.2 nM	38 nM			CC(C)NC(=O)N1CCCc2cc([C@H](C)C(=O)Nc3ccc(F)cc3)ccc21 [Example 89, 6-{(2S)-1-[(4-fluorophenyl)amino]-1-oxopropan-2-yl}-N-(propan-2-yl)-3,4-dihydroquinoline-1(2H)-carboxamide]
7.9 nM	325 nM			O=C(C1CC1)N1CCc2nc(C3(C(=O)Nc4ccc(F)cc4)CCC3)ccc21 [Example 268, 1-[1-(cyclopropanecarbonyl)-2,3-dihydro-1H-pyrrolo[3,2-b]pyridin-5-yl]-N-(4-fluorophenyl)cyclobutane-1-carboxamide]
1.51 nM	163 nM			Cc1cncc(N2CCCc3nc(C4(NC(=O)c5ccc(F)cc5)CC4)ccc32)n1 [Example 296, 4-fluoro-N-(1-(5-(6-methylpyrazin-2-yl)-5,6,7,8-tetrahydro-1,5-naphthyridin-2-yl)cyclopropyl)benzamide]
	8 nM	2.02 nM		CCC(COC)OC(=O)N1CCCc2nc(C(C)NC(=O)c3ccc(F)cc3)ccc21 (stereo not drawn) [Example 331, 1-methoxybutan-2-yl 6-(1-(4-fluorobenzamido)ethyl)-3,4-dihydro-1,5-naphthyridine-1(2H)-carboxylate]
	69 nM	1.09 nM	1 nM	Cc1nccc(N2CCCc3nc(C4(C(=O)Nc5ccc(F)cc5)CC(F)C4)ccc32)n1 (stereo not drawn) [Example 419, 2-(3-fluoro-1-((4-fluorophenyl)carbamoyl)cyclobutyl)-5-(2-methylpyrimidin-4-yl)-5,6,7,8-tetrahydro-1,5-naphthyridin-1-ium 2,2,2-trifluoroacetate]
	100 nM	8.22 nM		CC(NC(=O)c1ccc(Cl)cc1)c1ccc2c(n1)CCCN2c1cccc(CO)n1 (stereo not drawn) [Example 346, 4-chloro-N-(1-(5-(6-(hydroxymethyl)pyridin-2-yl)-5,6,7,8-tetrahydro-1,5-naphthyridin-2-yl)ethyl)benzamide]
	4950 nM	1.1 nM		COC[C@H](C)OC(=O)N1CCCc2nc(C(C)NC(=O)c3ccc(Cl)cc3)ccc21 (stereo partly drawn) [Example 330, (S)-1-methoxypropan-2-yl 6-(1-(4-chlorobenzamido)ethyl)-3,4-dihydro-1,5-naphthyridine-1(2H)-carboxylate]
4.9 nM	19 nM			N#Cc1cccc(C(=O)N2CCCc3nc(C4(NC(=O)c5ccc(F)cc5)CC4)ccc32)c1 [Example 175, N-{1-[5-(3-cyanobenzene-1-carbonyl)-5,6,7,8-tetrahydro-1,5-naphthyridin-2-yl]cyclopropyl}-4-fluorobenzamide]

IC50 (IDO1 [1]; about 48 hours)	IC50 (IDO1 [2])	IC50 (IDO1 [1])	IC50 (IDO1 [1]; value in running text)	Structure (SMILES)
	254 nM	3.62 nM		CC(C(=O)Nc1ccc(F)cc1)c1ccc2c(n1)CCCN2c1ccnc(C2CC2)n1 (stereo not drawn) [Example 365, 2-(5-(2-cyclopropylpyrimidin-4-yl)-5,6,7,8-tetrahydro-1,5-naphthyridin-2-yl)-N-(4-fluorophenyl)propanamide]
2.7 nM	2580 nM			Cc1cccc(N2CCCc3nc(C4(NC(=O)c5ccc(F)cc5)CC4)ccc32)n1 [Example 245, 4-fluoro-N-(1-(5-(6-methylpyridin-2-yl)-5,6,7,8-tetrahydro-1,5-naphthyridin-2-yl)cyclopropyl)benzamide]
11.5 nM	2980 nM			O=C(Nc1ccc(Cl)cc1)C1(c2ccc3c(n2)CCCN3c2cccc(C3CC3)n2)CCC1 [Example 408, N-(4-chlorophenyl)-1-(5-(6-cyclopropylpyridin-2-yl)-5,6,7,8-tetrahydro-1,5-naphthyridin-2-yl)cyclobutane-1-carboxamide]
1.82 nM	27 nM			O=C(Nc1ccc(Cl)cc1)C1(c2ccc3c(n2)CCCN3c2ccnc(C(F)(F)F)n2)COC1 [Example 396, N-(4-chlorophenyl)-3-(5-(2-(trifluoromethyl)pyrimidin-4-yl)-5,6,7,8-tetrahydro-1,5-naphthyridin-2-yl)oxetane-3-carboxamide]
1.91 nM	42 nM			Cc1cccc(N2CCCc3nc(C4(NC(=O)c5ccc(Cl)cc5)CCC4)ccc32)n1 [Example 405, 4-chloro-N-(1-(5-(6-methylpyridin-2-yl)-5,6,7,8-tetrahydro-1,5-naphthyridin-2-yl)cyclobutyl)benzamide]
	12 nM	1.7 nM		Cc1nccc(N2CCCc3nc(C4(C(=O)Nc5ccc(F)cc5)CC4(F)F)ccc32)n1 (single isomer, unassigned) [Example 422, 2,2-difluoro-N-(4-fluorophenyl)-1-(5-(2-methylpyrimidin-4-yl)-5,6,7,8-tetrahydro-1,5-naphthyridin-2-yl)cyclopropanecarboxamide]
	16 nM	1.82 nM		Cc1nccc(N2CC(F)Cc3cc(C4(NC(=O)c5ccc(Cl)cc5)CC4)ccc32)n1 (racemic) [Example 437, 4-chloro-N-(1-(3-fluoro-1-(2-methylpyrimidin-4-yl)-1,2,3,4-tetrahydroquinolin-6-yl)cyclopropyl)benzamide, 2,2,2-trifluoroacetate salt]
3.18 nM	2980 nM			Cc1cncc(N2CCCc3nc(C4(NC(=O)c5ccc(Cl)cc5)CCC4)ccc32)c1 [Example 406, 4-chloro-N-(1-(5-(5-methylpyridin-3-yl)-5,6,7,8-tetrahydro-1,5-naphthyridin-2-yl)cyclobutyl)benzamide]
	1000 nM	4.24 nM		CC(NC(=O)c1ccc(Cl)cc1)c1ccc2c(n1)CCCN2c1nc(C(F)(F)F)nc2ccccc12 (stereo not drawn) [Example 358, 2-(1-(4-chlorobenzamido)ethyl)-5-(2-(trifluoromethyl)quinazolin-4-yl)-5,6,7,8-tetrahydro-1,5-naphthyridin-1-ium 2,2,2-trifluoroacetate]
6 nM	378 nM			CC(NC(=O)c1ccc(F)cc1)c1ccc2c(c1)CCCN2C(CO)c1cccc(Cl)c1 (single isomer, unassigned) [Example 92]
3.3 nM	20 nM			Cc1cccc(N2CCCc3nc(C4(C(=O)Nc5ccc(Cl)cc5)CCC4)ccc32)n1 [Example 404, N-(4-chlorophenyl)-1-(5-(6-methylpyridin-2-yl)-5,6,7,8-tetrahydro-1,5-naphthyridin-2-yl)cyclobutane-1-carboxamide]
6.2 nM	223 nM			O=C(C1CC1)N1CCCc2cc(C3(C(=O)Nc4ccc(F)cn4)CCC3)ccc21 [Example 96, 1-(1-(cyclopropanecarbonyl)-1,2,3,4-tetrahydroquinolin-6-yl)-N-(5-fluoropyridin-2-yl)cyclobutane-1-carboxamide]
1.9 nM	336 nM			O=C(Nc1ccc(Cl)cc1)C1(c2ccc3c(n2)CCN3c2ccccn2)CCC1 [Example 272, N-(4-chlorophenyl)-1-[1-(pyridin-2-yl)-2,3-dihydro-1H-pyrrolo[3,2-b]pyridin-5-yl]cyclobutane-1-carboxamide]
2.3 nM	71 nM			CC(NC(=O)c1ccc(F)cc1)c1ccc2c(n1)CCCN2C(=O)c1cc(Cl)ccn1 (stereo not drawn) [Example 277, N-(1-(5-(4-chloropicolinoyl)-5,6,7,8-tetrahydro-1,5-naphthyridin-2-yl)ethyl)-4-fluorobenzamide]
1.68 nM	3 nM			Cc1nccc(N2CCCc3nc(C4(NC(=O)c5ccc(F)cc5)CCC4)ccc32)n1 [Example 402, 4-fluoro-N-(1-(5-(2-methylpyrimidin-4-yl)-5,6,7,8-tetrahydro-1,5-naphthyridin-2-yl)cyclobutyl)benzamide]
